Legend:
HIV-1JR-FL = assay: Viral infection assay, recombinant HIV-1 pseudotyped with JR-FL Env (wild type and mutants), Cf2Th-CD4/CCR5 cells; type: cell-based; details: for IC50: Example 8 table, read-out: IC50 (JR-FL); for Therapeutic Index (TI): calculated from IC50 against JR-FL and A-MLV
From the text: HIV-1 Env mutants. Mutations were introduced into the plasmid expressing the fulllength HIV-1YU2 or HIV-1JR-FL Envs using the QuikChange II site-directed mutagenesis protocol or the QuikChange multi site-directed mutagenesis kit (Stratagene). The presence of the desired mutations was confirmed by DNA sequencing. All HIV-1 Env residues are numbered based on alignment with the HXBc2 prototypic sequence, according to current convention.
(§1) Production of recombinant HIV-1 expressing luciferase. […] After 48 hours, the supernatant was collected, buffered with 50 mM Hepes pH 7.4 (final concentration) and centrifuged for 5 minutes at 750×g and 4° C. The virus-containing supernatant was used directly or frozen at −80° C.
(§2) Viral infection assay. Each test compound was serially diluted in DMSO in a 96-well B&W isoplate (PerkinElmer, Boston, Mass.) using an HP D300 Digital Dispenser, to a final volume of 450 nl. DMSO was used as a control. Viruses pseudotyped with a specific Env were added to each well and incubated briefly at room temperature. Cf2Th-CD4/CCR5 cells were detached with StemPro Accutase Cell Dissociation Reagent (Invitrogen, cat #A11105-01), washed once, and 5000 cells were added to each well. […] Following incubation, the medium was aspirated and cells were lysed with 30 μl of Passive Lysis Buffer (Promega, cat #E1941). The activity of the firefly luciferase, which was used as a reporter protein in the system, was measured with a Centro LB 960 luminometer (Berthold Technologies, Oak Ridge, Tenn.). One hundred microliters of assay buffer (15 mM MgSO4, 15 mM KH2PO4/K2HPO4 pH 7.8, 1 mM ATP and 1 mM DTT) was injected to each well, followed by a 50 μl injection of 1 mM Dluciferin potassium salt (BD Pharmingen, San Jose, Calif.); luminescence was measured for 2 sec. Infection of PBMC was done as above, but 20,000-40,000 cells/well and viruses concentrated by ultracentrifugation were used. After four hours of incubation with viruses, the cells were centrifuged at 200×g for 6 minutes at 4° C., resuspended in 100 μl RPMI-PBMC medium and incubated at 37° C. for an additional 36-40 hours (total 40-44 hours). Supernatant was removed after centrifugation at 400×g for 5 minutes and cells were processed to detect luciferase activity, as described above.

[1] = tested on: amphotropic murine leukemia virus (A-MLV); assay: Viral infection assay, control virus with A-MLV envelope; type: cell-based; details: Example 8 table; read-out: IC50 (A-MLV)
Description: as §1, §2
The effect of 18A on viral infection was tested using recombinant HIV-1 pseudotyped with the envelope glycoproteins of different primate immunodeficiency viruses or the amphotropic murine leukemia virus (A-MLV) as a control.

SMILES | IC50 (HIV-1JR-FL) [µM] | Therapeutic Index (TI) (HIV-1JR-FL) | IC50 [1] [µM]
O=C(N/N=C/c1ccc(O)c([N+](=O)[O-])c1)Nc1cccc2nsnc12 [Compound 18A40] | 7.6 | >14.7 | > 112
COc1cc(/C=N/NC(=O)Nc2cccc3nsnc23)cc(OC)c1OC [Compound 18A21] | > 112 |  | > 112
O=C(N/N=C/c1c(O)cc(O)cc1O)Nc1cccc2nsnc12 [Compound 18A17] | 24.8 | 2.6 | 64
COc1ccc(/C=N/NC(=O)Nc2cccc3nsnc23)c(O)c1 [Compound 18A58] | > 112 |  | > 112
O=C(N/N=C/c1cccc(O)c1)Nc1cccc2nsnc12 [Compound 18A19] | 6.6 | 7 | 46.2
Cc1cc(/C=N/NC(=O)Nc2cccc3nsnc23)cc(C)c1O [Compound 18A16] | 0.2 | 0.5 | 0.1
COc1ccc(/C=N/NC(=O)Nc2cccc3nsnc23)c(Cl)c1OC [Compound 18A30] | > 112 |  | > 112
O=C(N/N=C/c1ccccc1O)Nc1cccc2nsnc12 [Compound 18A10] | ~0.7 | <1 | < 0.5
O=C(N/N=C/c1ccccc1)Nc1cccc2nsnc12 [Compound 18A13] | 16.9 | 4.4 | 75.2
COc1cc(/C=N/NC(=O)Nc2cccc3nsnc23)ccc1O [Compound 18A18] | 1.5 | 0.6 | 0.8
O=C(N/N=C/c1ccc(Cn2cccn2)cc1)Nc1cccc2nsnc12 [Compound 18A52] | 3.4 | 11 | 37.3
O=C(N/N=C/c1cc(O)cc(O)c1)Nc1cccc2nsnc12 [Compound 18A49] | 13 | >8.6 | > 112
COc1ccc(/C=N/NC(=O)Nc2cccc3nsnc23)cc1OC [Compound 18A5] | 5 | 5.1 | 25.9
O=C(N/N=C/c1ccc(O)c(Br)c1)Nc1cccc2nsnc12 [Compound 18A48] | > 112 |  | > 112
COc1ccc(/C=N/NC(=O)Nc2cccc3nsnc23)cc1O [Compound 18A25] | 1.8 | 6.4 | 11.6
O=C(N/N=C/c1ccc(O)c(O)c1)Nc1cccc2nsnc12 [Compound 18A20] | 5.2 | 10.8 | 56.3
O=C(N/N=C/c1cccc(F)c1)Nc1cccc2nsnc12 [Compound 18A34] | 10.2 | 6.8 | 69.4
O=C(N/N=C/c1cccc(O)c1O)Nc1cccc2nsnc12 [Compound 18A36] | 6.2 | 8.1 | 50.5
COc1ccc(/C=N/NC(=O)Nc2cccc3nsnc23)c(OC)c1 [Compound 18A2] | 60 | 1.7 | 101
COc1ccc(/C=N/NC(=O)Nc2cccc3nsnc23)cc1 [Compound 18A1] | > 112 |  | > 112
O=C(N/N=C/c1ccc(O)c(Cl)c1)Nc1cccc2nsnc12 [Compound 18A32] | 4 |  | 19.2

Source: patent US20170298056A1, “SMALL MOLECULE INHIBITORS OF HIV-1 ENTRY AND METHODS OF USE THEREOF” (Dana-Farber Cancer Institute, Inc., priority 2014, published 2017)
